Experiments:
Type in all cases: cell-based
[1] = tested on: Human renal proximal tubular cells HK2; test: inhibitory effect in human renal fibrosis cell model (TGFβ1-stimulated), qPCR of fibrosis gene mRNA; conditions: for therapeutic effect on renal fibrosis: overall conclusion from the HK2 cell model; for difference from the positive drug hydronidone group: renal fibrosis cells, hydronidone 20µmol
Experimental: (§1) In embodiments, the method for detecting the inhibitory effect of micropeptide OFMP in a fibrotic cell model by the real-time fluorescence quantitative PCR method comprises: • counting and inoculating human hepatic stellate cells LX-2, human non-small cell lung cancer cell line A549, and human renal proximal tubular cells HK2 to culture plates; • except for the control group, adding 10nmol of recombinant human TGFβ1 stimulating factor to stimulate continuously for 24 h; • extracting and collecting the total RNA of the cell samples with a TRIzol reagent, and then reverse-transcribing the extracted total RNA using a reverse transcription reagent, and performing qPCR reaction using the qPCR premix solution; and • detecting mRNA expression levels of genes Colla1 and α-SMA using a real-time fluorescence quantitative PCR instrument.
(§2) According to the TRIzol reagent manual of Life Invitrogen, the total RNA of the cell samples was extracted and collected. Then, the purity and concentration of the extracted RNA was quantified by a NanoDrop 2000 ultra micro spectrophotometer. The integrity of the extracted RNA was inspected and ensured by agarose gel electrophoresis. A reverse transcription reagent HiScript® III RT SuperMix for qPCR (+ genomic DNA wiper) was used to perform reverse transcription on the extracted total RNA and a qPCR premix liquid ChamQ SYBR qPCR Master Mix was used to perform qPCR reaction.
(§3) After the above components were mixed well, the following procedure proceeded: initial denaturation 95°C 30s, 95°C 10s, 60°C 30s, 50 cycles. After the qPCR reaction was completed, the Cq value of each sample well was collected. The maximum error of the Cq values among the three duplicate wells of each sample should be no more than 0.5 to ensure data accuracy.
(§4) Human renal proximal tubular cells HK2 were cultured in a 37°C 5% CO2 cell incubator until the cell density was above 80%, and the cells were digested and collected by trypsin, and centrifuged. After the supernatant was discarded, the cells were counted by a cell counter, inoculated to six-well cell culture plates, and put into a 37°C 5% CO2 cell incubator to continue the culturing. The culture medium was sucked out after the cells were cultured for 24 h, a 2‰ DMSO solvent was added as a negative control, 20µmol of hydronidone was added as a positive control, 40µmol, 10µmol, 2.5µmol, 625nmol and 156nmol of the synthetic peptide OFMP were added in the equal proportion for other groups as administration groups, 10nmol of recombinant human TGFβ1 stimulating factor was added to other groups except the control groups half an hour later to continuously stimulate for 24 h, and the mRNA expression levels of genes Colla1, TGFβ1 and CTGF in OFMP3178, and the mRNA expression levels of genes Colla1 and α-SMA in OFMP2067 and OFMP1080 were detected.

[2] = tested on: human hepatic stellate cells LX-2; test: inhibitory effect in human liver fibrosis cell model (TGFβ1-stimulated), qPCR of fibrosis gene mRNA; conditions: for difference from the positive drug hydronidone group: liver fibrosis cells, hydronidone 20µmol; for therapeutic effect on liver fibrosis: overall conclusion from the LX-2 cell model
Experimental: as §1, §2, §3
as §4, with “Human hepatic stellate cells LX-2, human non-small cell lung cancer cell line A549, and human” for “Human”

[3] = tested on: Human non-small cell lung cancer cell line A549; test: inhibitory effect in human pulmonary fibrosis cell model (TGFβ1-stimulated), qPCR of fibrosis gene mRNA; conditions: for therapeutic effect on pulmonary fibrosis: overall conclusion from the A549 cell model; for difference from the positive drug Nintedanib group: pulmonary fibrosis cells, Nintedanib 2µmol
Experimental: as §1, §2, §3
as §4, with “non-small cell lung cancer cell line A549 was” for “renal proximal tubular cells HK2 were”, “2µmol” for “20µmol”, “Nintedanib” for “hydronidone”

[4] = different concentrations (40µmol to 156nmol), 10nmol TGFβ1, 24 h, compared with the model group

OFMP1080 (MRHRLVSLSVTSCVTPAAGTRRGSAGAVGTNTGRGGPPPHALRASGEQSPAQGVS)
mRNA expression level of gene Colla1 in renal fibrosis cells [1, 4]: significantly decreased | therapeutic effect on renal fibrosis [1]: good therapeutic effect | mRNA expression level of gene Colla1 in renal fibrosis cells ([1]; treatment condition 40µmol-24h): most significant decrease | mRNA expression level of gene Colla1 in liver fibrosis cells [2, 4]: significantly decreased | difference from the positive drug hydronidone group [2]: not a significant difference | therapeutic effect on liver fibrosis [2]: good therapeutic effect | mRNA expression level of gene Colla1 in liver fibrosis cells ([2]; treatment condition 40µmol-24h): most significant decrease | mRNA expression level of gene α-SMA in liver fibrosis cells ([2]; treatment condition 40µmol-24h): most significant decrease | mRNA expression level of gene Colla1 in pulmonary fibrosis cells [3, 4]: significantly decreased | therapeutic effect on pulmonary fibrosis [3]: good therapeutic effect | mRNA expression level of gene Colla1 in pulmonary fibrosis cells ([3]; treatment condition 10µmol-24h): most significant decrease

OFMP2067 (MHLDHSDPITRDHMGSVMAQVRQKLFQFLQAEPHNSLGKAARRLSLMLHGLVTPSLP)
mRNA expression level of gene Colla1 in renal fibrosis cells [1, 4]: significantly decreased | mRNA expression level of gene α-SMA in renal fibrosis cells [1, 4]: significantly decreased | therapeutic effect on renal fibrosis [1]: good therapeutic effect | difference from the positive drug hydronidone group [1]: a significant difference | mRNA expression level of gene Colla1 in renal fibrosis cells ([1]; treatment condition 40µmol-24h): most significant decrease | mRNA expression level of gene α-SMA in renal fibrosis cells ([1]; treatment condition 40µmol-24h): most significant decrease | mRNA expression level of gene Colla1 in liver fibrosis cells [2, 4]: significantly decreased | mRNA expression level of gene α-SMA in liver fibrosis cells [2, 4]: significantly decreased | difference from the positive drug hydronidone group [2]: a significant difference | therapeutic effect on liver fibrosis [2]: good therapeutic effect | mRNA expression level of gene Colla1 in liver fibrosis cells ([2]; treatment condition 40µmol-24h): most significant decrease | mRNA expression level of gene α-SMA in liver fibrosis cells ([2]; treatment condition 40µmol-24h): most significant decrease | mRNA expression level of gene Colla1 in pulmonary fibrosis cells [3, 4]: significantly decreased | mRNA expression level of gene α-SMA in pulmonary fibrosis cells [3, 4]: significantly decreased | therapeutic effect on pulmonary fibrosis [3]: good therapeutic effect | difference from the positive drug Nintedanib group [3]: a significant difference | mRNA expression level of gene Colla1 in pulmonary fibrosis cells ([3]; treatment condition 40µmol-24h): most significant decrease | mRNA expression level of gene α-SMA in pulmonary fibrosis cells ([3]; treatment condition 40µmol-24h): most significant decrease

OFMP3178 (MSLSICTLCLLPRRQEYCILKVPGLLFFLITNDLGSSDHSCLPRVKVPFKALLPGEL)
mRNA expression level of gene CTGF in renal fibrosis cells [1, 4]: significantly decreased | mRNA expression level of gene Colla1 in renal fibrosis cells [1, 4]: significantly decreased | mRNA expression level of gene TGFβ1 in renal fibrosis cells [1, 4]: significantly decreased | therapeutic effect on renal fibrosis [1]: good therapeutic effect | difference from the positive drug hydronidone group [1]: a significant difference | mRNA expression level of gene CTGF in renal fibrosis cells ([1]; treatment condition 40µmol-24h): most significant decrease | mRNA expression level of gene Colla1 in renal fibrosis cells ([1]; treatment condition 40µmol-24h): most significant decrease | mRNA expression level of gene TGFβ1 in renal fibrosis cells ([1]; treatment condition 40µmol-24h): most significant decrease | mRNA expression level of gene CTGF in liver fibrosis cells [2, 4]: significantly decreased | mRNA expression level of gene Colla1 in liver fibrosis cells [2, 4]: significantly decreased | difference from the positive drug hydronidone group [2]: a significant difference | therapeutic effect on liver fibrosis [2]: good therapeutic effect | mRNA expression level of gene CTGF in liver fibrosis cells ([2]; treatment condition 40µmol-24h): most significant decrease | mRNA expression level of gene Colla1 in liver fibrosis cells ([2]; treatment condition 40µmol-24h): most significant decrease | mRNA expression level of gene CTGF in pulmonary fibrosis cells [3, 4]: significantly decreased | mRNA expression level of gene Colla1 in pulmonary fibrosis cells [3, 4]: significantly decreased | mRNA expression level of gene TGFβ1 in pulmonary fibrosis cells [3, 4]: significantly decreased | therapeutic effect on pulmonary fibrosis [3]: good therapeutic effect | difference from the positive drug Nintedanib group [3]: a significant difference | mRNA expression level of gene CTGF in pulmonary fibrosis cells ([3]; treatment condition 40µmol-24h): most significant decrease | mRNA expression level of gene Colla1 in pulmonary fibrosis cells ([3]; treatment condition 40µmol-24h): most significant decrease | mRNA expression level of gene TGFβ1 in pulmonary fibrosis cells ([3]; treatment condition 40µmol-24h): most significant decrease
